Measurements: US4935520A, “Compound, oleyl-2-pyridinioethyl phosphate having antifungal and antiprotozoal properties” (Takeda Chemical Industries, Ltd., priority 1982, dated 1990)

Each molecule was assayed on sarcoma 180 (assay: Effects against sarcoma 180 (survival rate, ICR mice)). Conditions: 1 mg per mouse i.p., four days before 1×10^5 cells of sarcoma 180 i.p.; vs physiological saline control.
Assay type: in vivo
With `CCCCCCCCC(CCCCCCCC)OP(=O)([O-])OCC[N+](C)(C)C` [Production Example 11, (1-Octyl)nonyl 2-trimethylammonioethyl phosphate] the “Survival Rate (T/C)” value was 282.
In the case of `CCCCCCCCCCCCCCCCCCCCCCOP(=O)([O-])OCC[N+](C)(C)C` [Production Example 5, Docosyl trimethylammonioethyl phosphate], the “Survival Rate (T/C)” value is reported as 167.

These molecules were tested on Pyricularia oryzae IFO-5279 (assay: microbe, parasite or virus in culture). Conditions: IFO5279.
Assay type: cell-based
`CC(C)CCCC(C)CCCC(C)CCCC(C)CCOP(=O)([O-])OCC[N+](C)(C)C` (centres unmarked) [Production Example 7, 3,7,11,15-Tetramethylhexadecyl 2-trimethylammonioethyl phosphate] was tested, and the MIC was 1.56 µg/mL.

The molecules below were run on Gibberella fujiknroi (assay: Antifungal activity, MIC). Conditions: not given.
Assay type: cell-based
Work on `CC(C)CCCC(C)CCCC(C)CCCC(C)CCOP(=O)([O-])OCC[N+](C)(C)C` (centres unmarked) [Production Example 7, 3,7,11,15-Tetramethylhexadecyl 2-trimethylammonioethyl phosphate] yielded an MIC of 6.25 µg/mL.

Each molecule was assayed on Botrytis cinerea IFO-5365 (assay: Antifungal activity, MIC). Conditions: IFO5365.
Assay type: cell-based
Molecule `CC(C)CCCC(C)CCCC(C)CCCC(C)CCOP(=O)([O-])OCC[N+](C)(C)C` (centres unmarked) [Production Example 7, 3,7,11,15-Tetramethylhexadecyl 2-trimethylammonioethyl phosphate] has an MIC of 25 µg/mL.

These molecules were tested on Colletctrichum lagenarium IFO-6207 (assay: Antifungal activity, MIC). Conditions: test organism 9; 1% glucose-bouillon agar medium, serial dilution method; read-out: MIC.
Assay type: cell-based
In the case of `CC(C)CCCC(C)CCCC(C)CCCC(C)CCOP(=O)([O-])OCC[N+](C)(C)C` (centres unmarked) [Production Example 7, 3,7,11,15-Tetramethylhexadecyl 2-trimethylammonioethyl phosphate], the MIC is reported as 100 µg/mL.

The molecules below were run on Tetrahymena pyriformis W strain (assay: Antiprotozoal activity, MIC). Conditions: Tetrahymena pyriformis; broth dilution method, pH 7.0, 28° C., 44 to 48 hours; read-out: MIC against Tetrahymena pyriformis W strain.
Assay type: cell-based
Method: The antiprotozoal activity values as shown in Table 4 were assayed using Tetrahymena pyriformis W strain as the test organism and an assay medium composed of 20 g of tryptose peptone (manufactured by Difco), 1 g of yeast extract, 2 g of glucose, 1000 ml of distilled water and 10 ml of 1M phosphate buffer (pH 7.0). The incubation was continued at 28° C. for 44 to 48 hours and the minimum inhibitory concentration (MIC) of the compounds of this invention was determined by the broth dilution method.
In the case of `CCCCCCCCCCCCCCC/C=C/COP(=O)([O-])OCC[N+](C)(C)C` [Production Example 10, (E)-2-Octadecenyl 2-trimethylammonioethyl phosphate], the MIC is reported as ≤ 1 µg/mL.
In the case of `CC(C)CCCC(C)CCCC(C)CCCC(C)CCOP(=O)([O-])OCC[N+](C)(C)C` (centres unmarked) [Production Example 7, 3,7,11,15-Tetramethylhexadecyl 2-trimethylammonioethyl phosphate], the MIC is reported as 4 µg/mL.
`CCCCCCCCC(CCCCCCCC)OP(=O)([O-])OCC[N+](C)(C)C` [Production Example 11, (1-Octyl)nonyl 2-trimethylammonioethyl phosphate] was tested, and the MIC was ≤ 1 µg/mL.
In the case of `CCCCCCCCCCCCCCCCCCCCCCOP(=O)([O-])OCC[N+](C)(C)C` [Production Example 5, Docosyl trimethylammonioethyl phosphate], the MIC is reported as > 4 µg/mL.

Same assay, conditions: broth dilution method, pH 7.0, 28° C., 44 to 48 hours
In the case of “2-Trimethylammonioethyl cetyl phosphonate [Production Example 8]”, the “MIC against Tetrahymena pyriformis W strain” value is reported as 2 µg/mL.
